Data: patent US20030187003A1, “Pharmaceutical compositions and method for the treatment of retroviral infections” (priority 2000, published 2003)
Read-outs that look alike come from different tables or passages of the source.

Key:
[1] = test system: HIV-1(IIIB); experiment: inhibition of virus-induced cytopathicity in MT-4 cells, HIV-1 (IIIB); assay type: cell-based; conditions: for EC50: Human immunodeficiency virus 1, IIIB, MT4, 120 h, MT-4 cells, viral cytopathic effect, 5 days post-infection; for activity against the replication of HIV-1(IIIB): in words
[2] = test system: HIV-1 L1; experiment: inhibition of virus-induced cytopathicity in MT-4 cells, HIV-1 clinical isolate L1; assay type: cell-based; conditions: Human immunodeficiency virus 1, MT4, 120 h, read-out: EC50 HIV-1 L1
[3] = test system: HIV-2 (ROD); experiment: inhibition of virus-induced cytopathicity in MT-4 cells, HIV-2 (ROD); assay type: cell-based; conditions: for EC50: Human immunodeficiency virus 2, MT4, 120 h, read-out: EC50 HIV-2 ROD
[4] = test system: HIV-2 (EHO); experiment: inhibition of virus-induced cytopathicity in MT-4 cells, HIV-2 (EHO); assay type: cell-based; conditions: for EC50: Human immunodeficiency virus 2, MT4, 120 h, read-out: EC50 HIV-2 EHO
[5] = test system: SIV (MAC251); experiment: inhibition of virus-induced cytopathicity in MT-4 cells, SIV (MAC251); assay type: cell-based, Simian immunodeficiency virus; conditions: for EC50: Simian immunodeficiency virus, MT4, 120 h, read-out: EC50 SIV MAC251
[6] = cytotoxicity, viability of mock-infected cells; assay type: cell-based; conditions: human, viability of mock-infected MT-4 cells
Description: Cytotoxicity of these compounds was determined in parallel by measuring the viability of mock-infected MT-4 or C8166 cells 5 days post-infection. The antiviral activity and cytotoxicity data, including average values and standard deviations for at least two separate experiments, are depicted in Table 2, wherein: CC50 represents the 50% cytotoxic concentration, i.e. the concentration that reduces by 50% the viability of MT-4 cells.

[7] = target: T1, Recombinant HIV-1 RT (HXB2) (Human immunodeficiency virus type 1 group M subtype B, UniProt P04585); experiment: inhibition of HIV-1 reverse transcriptase enzymatic activity; assay type: biochemical
T1 construct: Recombinant HIV-1 RT (HXB2) was obtained as described by Jonckheere et al; made in house
Excerpt: Poly(rC).oligo(dG) and poly (rA).oligo(dT) were used as template-primers, and 8-[^3H]-dGTP and [^3H]-dTTP were used as radiolabelled substrates.

[8] = target: T2, recombinant His-tagged HIV-1 integrase (Human immunodeficiency virus type 1 group M subtype B, UniProt P04585); experiment: HIV-1 integrase 3′-processing assay, oligonucleotide-based; conditions: for inhibition of the 3-processing reaction: in words
Description: (§1) Reactions were started by the addition of the enzyme. Inhibitors were incubated shortly with the reaction components before the addition of integrase. Reactions were allowed to proceed at 37° C. for 7 minutes and stopped by the addition of formamide loading buffer (95% formamide, 30 mM ethylenediamine tetraacetic acid, 0.1% xylene cyanol, 0.1% bromophenol blue, 0.1% sodium dilaurylsulfate SDS). In the overall integration assay, this reaction was allowed to proceed for 60 minutes before the addition of a formamide dye.

[9] = target: T2, recombinant His-tagged HIV-1 integrase; experiment: HIV-1 integrase strand transfer assay, oligonucleotide-based
[10] = target: T2, recombinant His-tagged HIV-1 integrase; experiment: HIV-1 integrase overall integration assay, oligonucleotide-based; conditions: for inhibition of the overall integration reaction: in words
Description: as §1

[11] = test system: HIV-1 L2; assay type: cell-based
[12] = test system: HIV-1 L4; assay type: cell-based
[13] = test system: HIV-1 L6; assay type: cell-based; conditions: L6 versus wild type strain L1
[14] = test system: HIV-1-derived vectors pseudotyped with the VSV-G envelope; experiment: microbe, parasite or virus in culture; assay type: cell-based; conditions: Human immunodeficiency virus 1, HEK-293T, read-out: EC50 inhibition of lentiviral transduction
[15] = target: IN (Human immunodeficiency virus type 1 group M subtype B, UniProt P04585); conditions: background section; read-out: IC50 inhibition of IN; cited from earlier work
[16] = MT-4 cells, viral cytopathic effect, 5 days post-infection
[17] = IC50 Poly(A).oligo(dT), template-primer poly(A).oligo(dT)
[18] = IC50 poly(C).oligo(dG), template-primer poly(C).oligo(dG)

Row | Compound | EC50 [1] [µM] | EC50 [2, 16] [µM] | EC50 [3, 16] [µM] | EC50 [4, 16] [µM] | EC50 [5, 16] [µM] | CC50 at 5 days [6] [µM] | IC50 [8] [µM] | IC50 [10] [µM] | also measured
1 | Cc1ccnc2c1NC(=O)c1cccnc1N2C1CC1 [nevirapine, reference compound] | 0.04 | 0.06 ± 0.01 | > 97.6 | > 97.6 | > 97.6 | > 97.6 |  |  | activity against the replication of HIV-2 (ROD) ([3]; at 98 μM in MT-4 cells): inactive; activity against the replication of HIV-2 (EHO) ([4]; at 98 μM in MT-4 cells): inactive; activity against the replication of SIV (MAC251) ([5]; at 98 μM in MT-4 cells): inactive
2 | Oc1nc(O)c2c(n1)Oc1nc(O)nc(O)c1C2c1ccc(Br)cc1 [E] | 273 ± 38 |  |  |  |  | > 309 | 208 ± 82.2 | 298 ± 7.7 | activity against the replication of HIV-1(IIIB) [1]: active; EC50 [2]: > 309 µM; EC50 [3]: > 309 µM; EC50 [4]: > 309 µM; EC50 [5]: > 309 µM; IC50 [7, 17]: > 494 µM; IC50 [7, 18]: > 494 µM; inhibition of the 3-processing reaction [8]: inhibited; IC50 [9]: > 1240 µM; inhibition of the overall integration reaction [10]: inhibited
3 | COc1nc(O)nc2c1C(c1ccc([N+](=O)[O-])cc1)c1c(OC)nc(O)nc1O2 [D] | > 313 | > 313 | > 313 | > 313 | > 313 | > 313 | > 250 | > 250 | 
4 | Clc1nc(Cl)c2c(n1)Oc1nc(Cl)nc(Cl)c1C2c1ccccc1 [B] | > 17.5 | > 17.5 | > 17.5 | > 17.5 | > 17.5 | 17.5 | 74 ± 38.5 | 25 ± 4.5 | 
5 | Oc1nc(S)nc2c1C(c1ccc(Cl)cc1)c1c(O)nc(S)nc1O2 [G] | 56.8 ± 30 |  |  |  |  | 137 | 0.9 ± 0.5 | 1 ± 0.4 | activity against the replication of HIV-1(IIIB) [1]: active; EC50 [2]: 101 ± 32 µM; EC50 [3]: > 137 µM; EC50 [4]: > 137 µM; EC50 [5]: 100 µM; EC50 ([11]; Human immunodeficiency virus 1): 95.6 ± 6.5 µM; fold increase in EC50 ([11]; L2 versus wild type strain L1): 0.9; EC50 ([12]; Human immunodeficiency virus 1): 163 ± 3.7 µM; fold increase in EC50 ([12]; L4 versus wild type strain L1): 1.6; fold increase in EC50 [13]: 1.8; IC50 [7, 17]: 35.2 ± 0.4 µM; IC50 [7, 18]: 25.8 ± 15.9 µM; inhibition of the 3-processing reaction [8]: inhibited; IC50 [9]: 201 ± 120 µM; inhibition of the overall integration reaction [10]: inhibited
6 | Cc1cn([C@H]2C[C@H](N=[N+]=[N-])[C@@H](CO)O2)c(=O)[nH]c1=O [AZT, reference compound] |  |  |  |  |  |  |  |  | EC50 [14]: 0.049 µM
7 | Dextran sulfate [reference compound] |  |  |  |  |  |  |  |  | IC50 ([7]; template-primer poly(A).oligo(dT), read-out: IC50 Poly(A).oligo(dT)): 22 ± 8.8 µM; IC50 ([7]; template-primer poly(C).oligo(dG), read-out: IC50 poly(C).oligo(dG)): 7.3 ± 3.2 µM
8 | Oc1nc(O)c2c(n1)Oc1nc(O)nc(O)c1C2c1ccc(I)cc1 [A] | > 276 | > 276 | > 276 | > 276 | > 276 | > 276 | > 207 | > 207 | 
9 | Oc1nc(O)c2c(n1)Oc1nc(O)nc(O)c1C2c1ccccc1 [C] | 170 ± 45 |  |  |  |  | > 383 | 22.4 ± 6.4 | 34.6 ± 11.3 | activity against the replication of HIV-1(IIIB) [1]: active; EC50 [2]: 116 ± 30 µM; EC50 [3]: > 383 µM; EC50 [4]: 169 ± 27 µM; EC50 [5]: 194 µM; IC50 [7, 17]: 33.1 ± 15.1 µM; IC50 [7, 18]: 15.1 ± 5.9 µM; inhibition of the 3-processing reaction [8]: inhibited; IC50 [9]: 782 ± 242 µM; inhibition of the overall integration reaction [10]: inhibited
10 | Oc1nc(O)c2c(n1)Oc1nc(O)nc(O)c1C2c1ccc(Cl)cc1 [F] | > 347 | > 347 | > 347 | > 347 | > 347 | > 347 | 144 ± 81.3 | 97.1 ± 93.8 | 
11 | [N-]=[N+]=Nc1cn([C@H]2C[C@H](N=[N+]=[N-])[C@@H](COP(=O)(O)O)O2)c(=O)[nH]c1=O [5-N3-AZUMP, 3′,5-diazido-2′,3′-dideoxyuridine 5′-monophosphate] |  |  |  |  |  |  |  |  | IC50 [15]: 150 µM
